IC50 data for 21 compounds are collected here from patent publication US20240228535A1 (priority 2022, published 2024).

In this assay the target is SARS2 coronavirus 3CL protease (Severe acute respiratory syndrome coronavirus 2, UniProt P0DTD1). The experiment in a line: biochemical. Conditions: 5 nM enzyme, 30 min pre-incubation with compound, 15 μM peptide substrate, 4 h at room temperature; read-out: FRET Potency (nM); IC50 values in the SARS2 3CLPro FRET assay.
Turning to `CNC(=O)C(=O)[C@H](C[C@@H]1CCNC1=O)NC(=O)c1cc(F)c(F)cc1NC(=O)OC1CC1` [Example 127, cyclopropyl N-[4,5-difluoro-2-[[(1S)-3-(methylamino)-2,3-dioxo-1-[[(3S)-2-oxopyrrolidin-3-yl]methyl]propyl]carbamoyl]phenyl]carbamate], the IC50 came out at 7.9 nM.
Regarding `O=C(NC1CC1)C(=O)[C@H](C[C@@H]1CCNC1=O)NC(=O)c1cc(Cl)ccc1NC(=O)C1CC(F)(F)C1` [Example 63, 5-chloro-N-[(1S)-3-(cyclopropylamino)-2,3-dioxo-1-[[(3S)-2-oxopyrrolidin-3-yl]methyl]propyl]-2-[(3,3-difluorocyclobutanecarbonyl)amino]benzamide], the IC50 was 7.3 nM.
To `CNC(=O)C(=O)[C@H](C[C@@H]1C[C@@H](C)NC1=O)NC(=O)c1cc(Cl)ccc1NC(=O)OCC1CC1(F)F` (stereo partly drawn) [Example 187, (2,2-difluorocyclopropyl)methyl N-[4-chloro-2-[(1S)-3-(methylamino)-1-[[(3S,5R)-5-methyl-2-oxo-pyrrolidin-3-yl]methyl]-2,3-dioxo-propyl]carbamoyl]phenyl] carbamate] belongs 2.5 nM.
To `CNC(=O)C(=O)[C@H](C[C@@H]1C[C@@H](C)NC1=O)NC(=O)c1cc(Cl)ccc1NC(=O)OC(C)(C)C` [Example 153, tert-butyl N-[4-chloro-2-[[(1S)-3-(methylamino)-1-[[(3S,5R)-5-methyl-2-oxo-pyrrolidin-3-yl]methyl]-2,3-dioxo-propyl]carbamoyl]phenyl] carbamate] belongs 39.8 nM.
`CNC(=O)C(=O)[C@H](C[C@@H]1C[C@@H](C)NC1=O)NC(=O)c1cc(Cl)ccc1NC(=O)[C@@H](N(C)C(=O)OC)C(C)(C)C` [Example 221]: the IC50 came out at 41.9 nM.
As for `CO[C@@H](C)C(=O)Nc1ccc(Cl)cc1C(=O)N[C@@H](C[C@@H]1C[C@@H](C)NC1=O)C(=O)C(=O)NC1CC1` [Example 166, 5-chloro-N-[(1S)-3-(cyclopropylamino)-1-[[(3S,5R)-5-methyl-2-oxo-pyrrolidin-3-yl]methyl]-2,3-dioxo-propyl]-2-[[(2S)-2-methoxypropanoyl]amino] benzamide], the figure is 10.1 nM; as for `C[C@@H]1C[C@@H](C[C@H](NC(=O)c2cc(Cl)ccc2NC(=O)c2cccc(C(F)(F)F)c2)C(=O)C(N)=O)C(=O)N1` [Example 48, N-[(1S)-3-amino-1-[[(3S,5R)-5-methyl-2-oxo-pyrrolidin-3-yl]methyl]-2,3-dioxo-propyl]-5-chloro-2-[[3-(trifluoromethyl)benzoyl]amino]benzamide], 8.8 nM.
To `CNC(=O)C(=O)[C@H](C[C@@H]1CCNC1=O)NC(=O)c1cc(Cl)ccc1NC(=O)OC1CC1(F)F` (stereo partly drawn) [Example 157, (2,2-difluorocyclopropyl) N-[4-chloro-2-[[(1S)-3-(methylamino)-2,3-dioxo-1-[[(3S)-2-oxopyrrolidin-3-yl]methyl]propyl]carbamoyl]phenyl]carbamate] belongs 8.9 nM; to `C[C@@H]1C[C@@H](C[C@H](NC(=O)c2cc(Cl)cnc2NC(=O)C2(C(F)(F)F)CC2)C(=O)C(=O)NC2CC2)C(=O)N1` [Example 22, 5-chloro-N-[(1S)-3-(cyclopropylamino)-1-[[(3S,5R)-5-methyl-2-oxo-pyrrolidin-3-yl]methyl]-2,3-dioxo-propyl]-2-[[1-(trifluoromethyl)cyclopropane-carbonyl]amino]pyridine-3-carboxamide], 22.6 nM; to `O=C(NC1CC1)C(=O)[C@H](C[C@@H]1CCNC1=O)NC(=O)c1cc(Cl)ccc1NC(=O)C12CC(F)(C1)C2` [Example 37, N-[4-chloro-2-[[(1S)-3-(cyclopropylamino)-2,3-dioxo-1-[[(3S)-2-oxopyrrolidin-3-yl]methyl]propyl]carbamoyl]phenyl]-3-fluoro-bicyclo[1.1.1]pentane-1-carboxamide], 10.7 nM.
To `CNC(=O)C(=O)[C@H](C[C@@H]1C[C@@H](C)NC1=O)NC(=O)c1cc(Cl)ccc1NC(=O)c1ncc(C(F)(F)F)cn1` [Example 217, N-[4-chloro-2-[[(1S)-3-(methylamino)-1-[[(3S,5R)-5-methyl-2-oxo-pyrrolidin-3-yl]methyl]-2,3-dioxo-propyl]carbamoyl]phenyl]-5-(trifluoromethyl)pyrimidine-2-carboxamide] belongs 6.7 nM; to `CNC(=O)C(=O)[C@H](C[C@@H]1C[C@@H](C)NC1=O)NC(=O)c1cc(Cl)ccc1NC(=O)c1cncc(C#N)c1` [Example 183], 10.1 nM.
Regarding `O=C(Nc1ccc(Cl)cc1C(=O)N[C@@H](C[C@@H]1CCNC1=O)C(=O)C(=O)NC1CC1)OCC1CC1` [Example 162, cyclopropylmethyl N-[4-chloro-2-[[(1S)-3-(cyclopropylamino)-2,3-dioxo-1-[[(3S)-2-oxopyrrolidin-3-yl]methyl]propyl]carbamoyl]phenyl]carbamate], the IC50 was 7.5 nM.
As for `CNC(=O)C(=O)[C@H](C[C@@H]1CCNC1=O)NC(=O)c1cc(Cl)ccc1NC(=O)C(C)c1cscn1` (stereo partly drawn) [Example 179, 5-chloro-N-[(1S)-3-(methylamino)-2,3-dioxo-1-[[(3S)-2-oxopyrrolidin-3-yl]methyl]propyl]-2-(2-thiazol-4-ylpropanoylamino)benzamide], the figure is 2.5 nM.
To `C[C@@H]1C[C@@H](C[C@H](NC(=O)c2cc(Cl)ccc2NC(=O)C(F)(F)F)C(=O)C(=O)NC2CC2)C(=O)N1` [Example 177, 5-chloro-N-[(1S)-3-(cyclopropylamino)-1-[[(3S,5R)-5-methyl-2-oxo-pyrrolidin-3-yl]methyl]-2,3-dioxo-propyl]-2-[(2,2,2-trifluoroacetyl)amino] benzamide] belongs 10.9 nM.
With `CNC(=O)C(=O)[C@H](C[C@@H]1C[C@@H](C)NC1=O)NC(=O)c1cc(C(F)F)ccc1NC(=O)c1cccc(C(F)(F)F)c1` [Example 70, 5-(difluoromethyl)-N-[(1S)-3-(methylamino)-1-[[(3S,5R)-5-methyl-2-oxo-pyrrolidin-3-yl]methyl]-2,3-dioxo-propyl]-2-[[3-(trifluoromethyl)benzoyl]amino]benzamide], the IC50 came to 6.9 nM.
As for `CNC(=O)C(=O)[C@H](C[C@@H]1C[C@@H](C)NC1=O)NC(=O)c1cc(Cl)ccc1NC(=O)C1CCC(F)(F)CC1` [Example 197], the figure is 9.4 nM.
As for `CNC(=O)C(=O)[C@H](C[C@@H]1CCNC1=O)NC(=O)c1cc(Cl)ccc1NC(=O)OC1CC1(F)F` (stereo partly drawn) [Example 156], the figure is 14.6 nM; as for `C[C@@H]1C[C@@H](C[C@H](NC(=O)c2cc(C#N)ccc2NC(=O)C23CC(F)(C2)C3)C(=O)C(=O)NC2CC2)C(=O)N1` [Example 13], 46.7 nM; as for `CNC(=O)C(=O)[C@H](C[C@@H]1C[C@@H](C)NC1=O)NC(=O)c1cc(Cl)ccc1NC(=O)OCC1CC1` [Example 152, cyclopropylmethyl N-[4-chloro-2-[[(1S)-3-(methylamino)-1-[[(3S,5R)-5-methyl-2-oxo-pyrrolidin-3-yl]methyl]-2,3-dioxo-propyl]carbamoyl]phenyl] carbamate], 5 nM.
For the compound `CNC(=O)C(=O)[C@H](C[C@@H]1C[C@@H](C)NC1=O)NC(=O)c1nc(Cl)ccc1NC(=O)OC` [Example 113], the IC50 was found to be 1290 nM.
